Measurements: the NIST ThermoML archive (doi:10.1016/j.jct.2016.02.014)
Numbers after ± are expanded uncertainties.

Test: xn = mol fraction of the nth substance listed
Settings: 100 kPa, Liquid; for viscosity: Capillary tube (Ostwald / Ubbelohde) method; for mass density: Vibrating tube method

Molecule `O=C1CCCO1` [γ-butyrolactone] + CCCCn1cc[n+](C)c1.N#CN=C=[N-] has a viscosity (273.15 K, x2 = 0) of 2.69 ± 0.06 mPa·s, a viscosity (273.15 K, x2 = 0.0504) of 3.61 ± 0.08 mPa·s and a viscosity (273.15 K, x2 = 0.1002) of 4.65 ± 0.11 mPa·s. For the same molecule, the viscosity (273.15 K, x2 = 0.2002) was 7.69 ± 0.17 mPa·s, the viscosity (273.15 K, x2 = 0.2984) was 11.85 ± 0.27 mPa·s and the viscosity (273.15 K, x2 = 0.4005) was 17.81 ± 0.4 mPa·s. It also gave a viscosity (273.15 K, x2 = 0.4954) of 24.81 ± 0.56 mPa·s, a viscosity (273.15 K, x2 = 0.6957) of 45.75 ± 1 mPa·s and a viscosity (273.15 K, x2 = 0.8871) of 74.11 ± 1.7 mPa·s. The mass density (273.15 K, x2 = 0) was 1149.15 ± 9.2 kg/m3, the mass density (273.15 K, x2 = 0.0504) was 1142.33 ± 9.1 kg/m3 and the mass density (273.15 K, x2 = 0.1002) was 1136.31 ± 9.1 kg/m3. It also gave a mass density (273.15 K, x2 = 0.2002) of 1124.63 ± 9 kg/m3, a mass density (273.15 K, x2 = 0.2984) of 1114.82 ± 8.9 kg/m3 and a mass density (273.15 K, x2 = 0.4005) of 1106.01 ± 8.9 kg/m3. The mass density (273.15 K, x2 = 0.4954) was 1099.09 ± 8.8 kg/m3, the mass density (273.15 K, x2 = 0.6957) was 1087.48 ± 8.7 kg/m3 and the mass density (273.15 K, x2 = 0.8871) was 1079.17 ± 8.7 kg/m3. For the same molecule, the viscosity (283.15 K, x2 = 0) was 2.21 ± 0.05 mPa·s, the viscosity (283.15 K, x2 = 0.0504) was 2.94 ± 0.07 mPa·s and the viscosity (283.15 K, x2 = 0.1002) was 3.73 ± 0.09 mPa·s. It also gave a viscosity (283.15 K, x2 = 0.2002) of 5.87 ± 0.13 mPa·s, a viscosity (283.15 K, x2 = 0.2984) of 8.75 ± 0.19 mPa·s and a viscosity (283.15 K, x2 = 0.4005) of 12.54 ± 0.28 mPa·s. For the same molecule, the viscosity (283.15 K, x2 = 0.4954) was 16.9 ± 0.38 mPa·s, the viscosity (283.15 K, x2 = 0.6957) was 29.14 ± 0.65 mPa·s and the viscosity (283.15 K, x2 = 0.8871) was 44.36 ± 1 mPa·s. It also gave a mass density (283.15 K, x2 = 0) of 1139.31 ± 9.1 kg/m3, a mass density (283.15 K, x2 = 0.0504) of 1133.08 ± 9.1 kg/m3 and a mass density (283.15 K, x2 = 0.1002) of 1127.5 ± 9 kg/m3. It also gave a mass density (283.15 K, x2 = 0.2002) of 1116.53 ± 8.9 kg/m3, a mass density (283.15 K, x2 = 0.2984) of 1107.21 ± 8.9 kg/m3 and a mass density (283.15 K, x2 = 0.4005) of 1098.76 ± 8.8 kg/m3. The mass density (283.15 K, x2 = 0.4954) was 1092.29 ± 8.8 kg/m3, the mass density (283.15 K, x2 = 0.6957) was 1081.06 ± 8.7 kg/m3 and the mass density (283.15 K, x2 = 0.8871) was 1072.88 ± 8.6 kg/m3. The viscosity (293.15 K, x2 = 0) was 1.86 ± 0.04 mPa·s, the viscosity (293.15 K, x2 = 0.0504) was 2.42 ± 0.05 mPa·s and the viscosity (293.15 K, x2 = 0.1002) was 2.97 ± 0.07 mPa·s. For the same molecule, the viscosity (293.15 K, x2 = 0.2002) was 4.53 ± 0.1 mPa·s, the viscosity (293.15 K, x2 = 0.2984) was 6.68 ± 0.15 mPa·s and the viscosity (293.15 K, x2 = 0.4005) was 9.31 ± 0.21 mPa·s. For the same molecule, the viscosity (293.15 K, x2 = 0.4954) was 12.22 ± 0.27 mPa·s, the viscosity (293.15 K, x2 = 0.6957) was 19.95 ± 0.45 mPa·s and the viscosity (293.15 K, x2 = 0.8871) was 28.87 ± 0.65 mPa·s. The mass density (293.15 K, x2 = 0) was 1129.49 ± 9 kg/m3, the mass density (293.15 K, x2 = 0.0504) was 1123.86 ± 9 kg/m3 and the mass density (293.15 K, x2 = 0.1002) was 1118.73 ± 9 kg/m3. For the same molecule, the mass density (293.15 K, x2 = 0.2002) was 1108.38 ± 8.9 kg/m3, the mass density (293.15 K, x2 = 0.2984) was 1099.49 ± 8.8 kg/m3 and the mass density (293.15 K, x2 = 0.4005) was 1091.44 ± 8.7 kg/m3. For the same molecule, the mass density (293.15 K, x2 = 0.4954) was 1085.13 ± 8.7 kg/m3, the mass density (293.15 K, x2 = 0.6957) was 1074.27 ± 8.6 kg/m3 and the mass density (293.15 K, x2 = 0.8871) was 1066.34 ± 8.6 kg/m3. The viscosity (298.15 K, x2 = 0) was 1.71 ± 0.04 mPa·s, the viscosity (298.15 K, x2 = 0.0504) was 2.22 ± 0.05 mPa·s and the viscosity (298.15 K, x2 = 0.1002) was 2.77 ± 0.06 mPa·s. The viscosity (298.15 K, x2 = 0.2002) was 4.16 ± 0.09 mPa·s, the viscosity (298.15 K, x2 = 0.2984) was 5.92 ± 0.13 mPa·s and the viscosity (298.15 K, x2 = 0.4005) was 8.18 ± 0.18 mPa·s. It also gave a viscosity (298.15 K, x2 = 0.4954) of 10.57 ± 0.23 mPa·s, a viscosity (298.15 K, x2 = 0.6957) of 16.81 ± 0.38 mPa·s and a viscosity (298.15 K, x2 = 0.8871) of 23.85 ± 0.54 mPa·s. For the same molecule, the mass density (298.15 K, x2 = 0) was 1124.59 ± 9 kg/m3, the mass density (298.15 K, x2 = 0.0504) was 1119.26 ± 9 kg/m3 and the mass density (298.15 K, x2 = 0.1002) was 1114.35 ± 8.9 kg/m3. It also gave a mass density (298.15 K, x2 = 0.2002) of 1104.32 ± 8.8 kg/m3, a mass density (298.15 K, x2 = 0.2984) of 1095.65 ± 8.8 kg/m3 and a mass density (298.15 K, x2 = 0.4005) of 1087.78 ± 8.7 kg/m3. For the same molecule, the mass density (298.15 K, x2 = 0.4954) was 1081.58 ± 8.7 kg/m3, the mass density (298.15 K, x2 = 0.6957) was 1070.9 ± 8.6 kg/m3 and the mass density (298.15 K, x2 = 0.8871) was 1063.09 ± 8.5 kg/m3. The viscosity (303.15 K, x2 = 0) was 1.59 ± 0.03 mPa·s, the viscosity (303.15 K, x2 = 0.0504) was 2.03 ± 0.05 mPa·s and the viscosity (303.15 K, x2 = 0.1002) was 2.5 ± 0.06 mPa·s. The viscosity (303.15 K, x2 = 0.2002) was 3.81 ± 0.08 mPa·s, the viscosity (303.15 K, x2 = 0.2984) was 5.27 ± 0.12 mPa·s and the viscosity (303.15 K, x2 = 0.4005) was 7.14 ± 0.16 mPa·s. It also gave a viscosity (303.15 K, x2 = 0.4954) of 9.15 ± 0.2 mPa·s, a viscosity (303.15 K, x2 = 0.6957) of 14.23 ± 0.32 mPa·s and a viscosity (303.15 K, x2 = 0.8871) of 19.86 ± 0.45 mPa·s. The mass density (303.15 K, x2 = 0) was 1119.68 ± 9 kg/m3, the mass density (303.15 K, x2 = 0.0504) was 1114.67 ± 8.9 kg/m3 and the mass density (303.15 K, x2 = 0.1002) was 1109.99 ± 8.9 kg/m3. It also gave a mass density (303.15 K, x2 = 0.2002) of 1100.28 ± 8.8 kg/m3, a mass density (303.15 K, x2 = 0.2984) of 1091.83 ± 8.7 kg/m3 and a mass density (303.15 K, x2 = 0.4005) of 1084.14 ± 8.7 kg/m3. The mass density (303.15 K, x2 = 0.4954) was 1078.05 ± 8.6 kg/m3, the mass density (303.15 K, x2 = 0.6957) was 1067.55 ± 8.6 kg/m3 and the mass density (303.15 K, x2 = 0.8871) was 1059.86 ± 8.5 kg/m3. The viscosity (313.15 K, x2 = 0) was 1.37 ± 0.03 mPa·s, the viscosity (313.15 K, x2 = 0.0504) was 1.74 ± 0.04 mPa·s and the viscosity (313.15 K, x2 = 0.1002) was 2.14 ± 0.05 mPa·s. The viscosity (313.15 K, x2 = 0.2002) was 3.14 ± 0.07 mPa·s, the viscosity (313.15 K, x2 = 0.2984) was 4.27 ± 0.09 mPa·s and the viscosity (313.15 K, x2 = 0.4005) was 5.64 ± 0.12 mPa·s. It also gave a viscosity (313.15 K, x2 = 0.4954) of 7.11 ± 0.16 mPa·s, a viscosity (313.15 K, x2 = 0.6957) of 10.69 ± 0.24 mPa·s and a viscosity (313.15 K, x2 = 0.8871) of 14.53 ± 0.33 mPa·s. For the same molecule, the mass density (313.15 K, x2 = 0) was 1109.87 ± 8.9 kg/m3, the mass density (313.15 K, x2 = 0.0504) was 1105.49 ± 8.8 kg/m3 and the mass density (313.15 K, x2 = 0.1002) was 1101.27 ± 8.8 kg/m3. The mass density (313.15 K, x2 = 0.2002) was 1092.23 ± 8.7 kg/m3, the mass density (313.15 K, x2 = 0.2984) was 1084.22 ± 8.7 kg/m3 and the mass density (313.15 K, x2 = 0.4005) was 1076.84 ± 8.6 kg/m3. It also gave a mass density (313.15 K, x2 = 0.4954) of 1071.02 ± 8.6 kg/m3, a mass density (313.15 K, x2 = 0.6957) of 1060.89 ± 8.5 kg/m3 and a mass density (313.15 K, x2 = 0.8871) of 1053.44 ± 8.5 kg/m3. It also gave a viscosity (323.15 K, x2 = 0) of 1.2 ± 0.03 mPa·s, a viscosity (323.15 K, x2 = 0.0504) of 1.52 ± 0.03 mPa·s and a viscosity (323.15 K, x2 = 0.1002) of 1.83 ± 0.04 mPa·s. For the same molecule, the viscosity (323.15 K, x2 = 0.2002) was 2.63 ± 0.06 mPa·s, the viscosity (323.15 K, x2 = 0.2984) was 3.56 ± 0.08 mPa·s and the viscosity (323.15 K, x2 = 0.4005) was 4.6 ± 0.1 mPa·s. For the same molecule, the viscosity (323.15 K, x2 = 0.4954) was 5.7 ± 0.13 mPa·s, the viscosity (323.15 K, x2 = 0.6957) was 8.38 ± 0.19 mPa·s and the viscosity (323.15 K, x2 = 0.8871) was 11.03 ± 0.25 mPa·s. The mass density (323.15 K, x2 = 0) was 1100.05 ± 8.8 kg/m3, the mass density (323.15 K, x2 = 0.0504) was 1096.31 ± 8.8 kg/m3 and the mass density (323.15 K, x2 = 0.1002) was 1092.59 ± 8.7 kg/m3. The mass density (323.15 K, x2 = 0.2002) was 1084.21 ± 8.7 kg/m3, the mass density (323.15 K, x2 = 0.2984) was 1076.75 ± 8.6 kg/m3 and the mass density (323.15 K, x2 = 0.4005) was 1069.73 ± 8.6 kg/m3. For the same molecule, the mass density (323.15 K, x2 = 0.4954) was 1064.05 ± 8.5 kg/m3, the mass density (323.15 K, x2 = 0.6957) was 1054.29 ± 8.5 kg/m3 and the mass density (323.15 K, x2 = 0.8871) was 1047.09 ± 8.4 kg/m3.
